According to patent US20200361871A1 (Enterprise Therapeutics Ltd., priority 2018, published 2020):

Target: human TMEM16A (TMEM16Aabc variant) (Homo sapiens, UniProt Q5XXA6, DEL476-501, form not given)
Test: Automated whole-cell patch clamp (Qpatch) TMEM16A potentiator assay in FRT cells stably expressing human TMEM16A
Assay type: cell-based
Settings: for % Potentiation @ 3.33 μM Avg: 3.33 μM solution of test compound, percentage increase of baseline TMEM16A current; for EC50: calculated EC50, Qpatch TMEM16A current at +70 mV
Procedure, shortened: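 Potentiation was read as the rise in peak +70 mV current over baseline (%), from cumulative 5-min additions of compound. Recordings used whole-cell automated patch of FRT cells stably carrying human TMEM16Aabc, with pipette Ca2+ buffered to give ~20% maximal current. EC50 and efficacy came from concentration-response fits.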

Chain of human TMEM16A (TMEM16Aabc variant) (Q5XXA6 with tags, fused parts or gaps DEL476-501): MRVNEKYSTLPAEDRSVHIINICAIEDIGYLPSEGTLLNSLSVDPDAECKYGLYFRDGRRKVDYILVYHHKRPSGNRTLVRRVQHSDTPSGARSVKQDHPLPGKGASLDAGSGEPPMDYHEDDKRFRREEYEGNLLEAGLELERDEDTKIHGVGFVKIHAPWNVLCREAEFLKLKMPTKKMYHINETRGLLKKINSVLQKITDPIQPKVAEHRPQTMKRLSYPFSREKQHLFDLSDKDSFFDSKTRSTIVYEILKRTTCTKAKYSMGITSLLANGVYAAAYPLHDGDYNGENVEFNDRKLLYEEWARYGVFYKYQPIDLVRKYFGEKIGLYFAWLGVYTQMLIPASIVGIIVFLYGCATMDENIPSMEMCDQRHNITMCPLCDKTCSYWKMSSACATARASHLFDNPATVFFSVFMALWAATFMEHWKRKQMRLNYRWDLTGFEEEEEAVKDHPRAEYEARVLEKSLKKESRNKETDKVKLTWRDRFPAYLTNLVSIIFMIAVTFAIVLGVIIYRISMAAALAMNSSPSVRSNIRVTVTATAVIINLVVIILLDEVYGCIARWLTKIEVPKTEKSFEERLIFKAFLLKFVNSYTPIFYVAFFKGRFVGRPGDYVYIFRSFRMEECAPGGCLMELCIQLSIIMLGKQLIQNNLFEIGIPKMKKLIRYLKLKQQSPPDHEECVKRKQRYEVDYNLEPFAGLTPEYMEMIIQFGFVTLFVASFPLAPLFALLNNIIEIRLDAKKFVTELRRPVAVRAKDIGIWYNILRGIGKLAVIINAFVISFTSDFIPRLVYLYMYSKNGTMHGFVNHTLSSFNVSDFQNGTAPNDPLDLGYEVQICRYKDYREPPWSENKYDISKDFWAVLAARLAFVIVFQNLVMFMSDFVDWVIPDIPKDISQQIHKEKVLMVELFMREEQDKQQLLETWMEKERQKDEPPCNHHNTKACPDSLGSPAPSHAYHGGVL

## C#CC(C)(C)NC(=O)c1cc(NC(=O)CC2CCCC2)ccn1 [Example 22.2, 4-[(2-Cyclopentylacetyl)amino]-N-(1,1-dimethylprop-2-ynyl)pyridine-2-carboxamide]
  % Potentiation @ 3.33 μM Avg: 157%
  EC50: 260 nM

## O=C(Cc1cc(Cl)ccc1O)Nc1ccnc(C(=O)NC23CCC(F)(C2)C3)c1 [Example 44, 4-[[2-(5-Chloro-2-hydroxy-phenyl)acetyl]amino]-N-(4-fluoro-1-bicyclo[2.1.1]hexanyl)pyridine-2-carboxamide]
  % Potentiation @ 3.33 μM Avg: 377%
  EC50: 50 nM

## CC(C)(C)NC(=O)c1cc(NC(=O)Cc2cccc(Cl)c2)ccn1 [Example 5.5, N-tert-Butyl-4-[[2-(3-chlorophenyl)acetyl]amino]pyridine-2-carboxamide]
  % Potentiation @ 3.33 μM Avg: 132%
  EC50: 720 nM

## Cn1nc(C(C)(C)C)cc1C(=O)Nc1ccnc(C(=O)NC(C)(C)C#N)c1 [Example 83.14, 4-[(5-tert-Butyl-2-methyl-pyrazole-3-carbonyl)amino]-N-(1-cyano-1-methyl-ethyl)pyridine-2-carboxamide]
  % Potentiation @ 3.33 μM Avg: 70%

## N#CC1(NC(=O)c2cc(NC(=O)Cc3cc(Cl)ccc3O)ccn2)CCOC1 (stereo not drawn) [Example 47, 4-[[2-(5-Chloro-2-hydroxy-phenyl)acetyl]amino]-N-(3-cyanotetrahydrofuran-3-yl)pyridine-2-carboxamide]
  % Potentiation @ 3.33 μM Avg: 237%
  EC50: 180 nM

## CC(C)(C)NC(=O)c1cc(NC(=O)Cc2ccccc2O)ccn1 [Example 1, N-tert-Butyl-4-[[2-(2-hydroxyphenyl)acetyl]amino]pyridine-2-carboxamide]
  % Potentiation @ 3.33 μM Avg: 203%
  EC50: 210 nM

## COc1ccc(C(=O)NC(C)(C)C)cc1NC(=O)Cc1cc(Cl)ccc1O [Example 16, N-tert-Butyl-3-[[2-(5-chloro-2-hydroxy-phenyl)acetyl]amino]-4-methoxy-benzamide]
  % Potentiation @ 3.33 μM Avg: 63%

## CC1(NC(=O)c2cc(NC(=O)Cc3cc(Cl)ccc3O)ccn2)CC1 [Example 35.8, 4-[[2-(5-Chloro-2-hydroxy-phenyl)acetyl]amino]-N-(1-methylcyclopropyl)pyridine-2-carboxamide]
  % Potentiation @ 3.33 μM Avg: 250%
  EC50: 180 nM

## C#CC(C)(C)NC(=O)c1cc(NC(=O)CN2CCOc3ccccc32)ccn1 [Example 5.39, 4-[[2-(2,3-Dihydro-1,4-benzoxazin-4-yl)acetyl]amino]-N-(1,1-dimethylprop-2-ynyl)pyridine-2-carboxamide]
  % Potentiation @ 3.33 μM Avg: 147%

## CC(C)(C)NC(=O)c1cc(NC(=O)Cc2ccc(C(C)(C)C)c(N)c2)ccn1 [Example 87, 4-[[2-(3-Amino-4-tert-butyl-phenyl)acetyl]amino]-N-tert-butyl-pyridine-2-carboxamide]
  % Potentiation @ 3.33 μM Avg: 332%
  EC50: 220 nM

## O=C(Cc1cc(Cl)ccc1O)Nc1ccnc(C(=O)NCCCOc2ccccc2)c1 [Example 35.7, 4-[[2-(5-Chloro-2-hydroxy-phenyl)acetyl]amino]-N-(3-phenoxypropyl)pyridine-2-carboxamide]
  % Potentiation @ 3.33 μM Avg: 97%

## O=C(Cc1cc(F)ccc1O)Nc1cccc(C(=O)NC2CCCCC2)c1 [Example 35.22, N-Cyclohexyl-3-[[2-(5-fluoro-2-hydroxy-phenyl)acetyl]amino]benzamide]
  % Potentiation @ 3.33 μM Avg: 104%
  EC50: 220 nM

## CC(C)(C)NC(=O)c1cc(NC(=O)Cc2cccc(F)c2Cl)ccn1 [Example 40, N-tert-Butyl-4-[[2-(2-chloro-3-fluoro-phenyl)acetyl]amino] pyridine-2-carboxamide]
  % Potentiation @ 3.33 μM Avg: 153%
  EC50: 700 nM

## CC(C)(C)NC(=O)c1cc(NC(=O)Cc2cccc(F)c2F)ccn1 [Example 23.8, N-tert-Butyl-4-[[2-(2,3-difluorophenyl)acetyl]amino]pyridine-2-carboxamide]
  % Potentiation @ 3.33 μM Avg: 122%

## COc1cccc(O)c1CC(=O)Nc1cccc(C(=O)NC(C)(C)C)c1 [Example 2.6, N-tert-Butyl-3-[[2-(2-hydroxy-6-methoxy-phenyl)acetyl]amino] benzamide]
  % Potentiation @ 3.33 μM Avg: 140%
  EC50: 2910 nM

## COCC(C#N)(COC)NC(=O)c1cc(NC(=O)Cc2cc(Cl)ccc2O)ccn1 [Example 86, 4-[[2-(5-Chloro-2-hydroxy-phenyl)acetyl]amino]-N-[1-cyano-2-methoxy-1-(methoxymethyl)ethyl]pyridine-2-carboxamide]
  % Potentiation @ 3.33 μM Avg: 593%
  EC50: 350 nM

## C#CC(C)(C)NC(=O)c1cc(NC(=O)Cc2ccc(Cl)c(O)c2)ccn1 [Example 92.2, 4-[[2-(4-Chloro-3-hydroxy-phenyl)acetyl]amino]-N-(1,1-dimethylprop-2-ynyl)pyridine-2-carboxamide]
  % Potentiation @ 3.33 μM Avg: 71%
  EC50: 10 nM

## CC(C)(C)NC(=O)c1cc(NC(=O)Cc2ccc3ncccc3c2)ccn1 [Example 5.29, N-tert-Butyl-4-[[2-(6-quinolyl)acetyl]amino]pyridine-2-carboxamide]
  % Potentiation @ 3.33 μM Avg: 190%
  EC50: 860 nM

## CC(C)(C)NC(=O)c1cc(NC(=O)C2CCc3c(Cl)ccc(O)c32)ccn1 (single isomer, unassigned) [Example 57a, N-tert-butyl-4-[[(1S) or (1R)-4-chloro-7-hydroxy-indane-1-carbonyl]amino]pyridine-2-carboxamide]
  % Potentiation @ 3.33 μM Avg: 285%
  EC50: 510 nM

## Cc1cc(C(=O)Nc2ccnc(C(=O)NC(C)(C)C#N)c2)c(C)n1Cc1cccs1 [Example 83.26, N-(1-Cyano-1-methyl-ethyl)-4-[[2,5-dimethyl-1-(2-thienylmethyl)pyrrole-3-carbonyl]amino]pyridine-2-carboxamide]
  % Potentiation @ 3.33 μM Avg: 95%

## C#CC(C)(C)NC(=O)c1cc(NC(=O)Cc2c(C)nn(C(C)C)c2C)ccn1 [Example 79.1, N-(1,1-Dimethylprop-2-ynyl)-4-[[2-(1-isopropyl-3,5-dimethyl-pyrazol-4-yl)acetyl]amino]pyridine-2-carboxamide]
  % Potentiation @ 3.33 μM Avg: 45%

## CC(C)(C)NC(=O)c1cc(NC(=O)C2CCc3ccccc32)ccn1 (stereo not drawn) [Example 5.22, N-tert-Butyl-4-(indane-1-carbonylamino)pyridine-2-carboxamide]
  % Potentiation @ 3.33 μM Avg: 94%

## CC(C)(C)NC(=O)c1cc(NC(=O)Cc2ccccc2F)ccn1 [Example 5.12, N-tert-Butyl-4-[[2-(2-fluorophenyl)acetyl]amino]pyridine-2-carboxamide]
  % Potentiation @ 3.33 μM Avg: 100%
  EC50: 760 nM

## CC(C)(C)c1ccc(O)c(CC(=O)Nc2ccnc(C(=O)NC3(C#N)CCC3)c2)c1 [Example 3.5a, 4-[[2-(5-tert-Butyl-2-hydroxy-phenyl)acetyl]amino]-N-(1-cyanocyclobutyl)pyridine-2-carboxamide]
  % Potentiation @ 3.33 μM Avg: 311%
  EC50: 500 nM

## CC(C)(C)NC(=O)c1cc(NC(=O)Cc2cc(CN3CCOCC3)ccc2O)ccn1 [Example 70, N-tert-Butyl-4-[[2-[2-hydroxy-5-(morpholinomethyl)phenyl]acetyl]amino]pyridine-2-carboxamide]
  % Potentiation @ 3.33 μM Avg: 138%

## CC(C)(C)NC(=O)c1cc(NC(=O)Cc2cc(Cl)cc(Br)c2O)ccn1 [Example 59, 4-[[2-(3-Bromo-5-chloro-2-hydroxy-phenyl)acetyl]amino]-N-tert-butyl-pyridine-2-carboxamide]
  % Potentiation @ 3.33 μM Avg: 175%

## CC(C)(C)NC(=O)c1cc(NC(=O)Cc2ccc(F)c(F)c2)ccn1 [Example 23.6, N-tert-Butyl-4-[[2-(3,4-difluorophenyl)acetyl]amino]pyridine-2-carboxamide]
  % Potentiation @ 3.33 μM Avg: 108%

## CC(C)(C)NC(=O)c1cc(NC(=O)C2Cc3ccccc3C2)ccn1 [Example 23.3, N-tert-Butyl-4-(indane-2-carbonylamino)pyridine-2-carboxamide]
  % Potentiation @ 3.33 μM Avg: 59%
  EC50: 470 nM

## CC(C)(C)NC(=O)c1cccc(NC(=O)Cc2cc(F)ccc2O)c1 [Example 2.1, N-tert-Butyl-3-[[2-(5-fluoro-2-hydroxy-phenyl)acetyl]amino]benzamide]
  % Potentiation @ 3.33 μM Avg: 216%
  EC50: 490 nM

## CC(C)(C#N)NC(=O)c1cc(NC(=O)c2cccnc2Oc2ccccc2)ccn1 [Example 83.25, N-[2-[(1-Cyano-1-methyl-ethyl)carbamoyl]-4-pyridyl]-2-phenoxy-pyridine-3-carboxamide]
  % Potentiation @ 3.33 μM Avg: -8%

## COCCC(C)(C)NC(=O)c1cc(NC(=O)Cc2cc(Cl)ccc2O)ccn1 [Example 1.4, 4-[[2-(5-Chloro-2-hydroxy-phenyl)acetyl]amino]-N-(3-methoxy-1,1-dimethyl-propyl)pyridine-2-carboxamide]
  % Potentiation @ 3.33 μM Avg: 195%
  EC50: 400 nM

## CC(C)(C)NC(=O)c1cc(NC(=O)Cc2c(O)c(Br)cc(Cl)c2Br)ccn1 [Example 3.11b, N-tert-Butyl-4-[[2-(2,5-dibromo-3-chloro-6-hydroxy-phenyl)acetyl]amino]pyridine-2-carboxamide]
  % Potentiation @ 3.33 μM Avg: 168%
  EC50: 410 nM

## C#CC(C)(C)NC(=O)c1cccc(NC(=O)Cc2cc(F)ccc2O)c1 [Example 35.21, N-(1,1-Dimethylprop-2-ynyl)-3-[[2-(5-fluoro-2-hydroxy-phenyl)acetyl]amino]benzamide]
  % Potentiation @ 3.33 μM Avg: 200%
  EC50: 410 nM
